Laboratory results as given in US20240158446A1, “CYCLIC COMPOUND HAVING SELECTIVE INHIBITORY ACTION ON KRAS OVER HRAS AND NRAS” (CHUGAI SEIYAKU KABUSHIKI KAISHA, priority 2021, published 2024).

Legend:
[1] = biological target: GDP-bound HRAS wild-type protein (Homo sapiens, UniProt P01112); test: Binding to HRAS by surface plasmon resonance (SPR), Single Cycle Kinetics; conditions: SPR KD ratio HRAS/KRAS, class symbols
[2] = biological target: GDP-bound KRAS wild-type protein (Homo sapiens, UniProt P01116); test: Binding to KRAS by surface plasmon resonance (SPR), Single Cycle Kinetics; conditions: SPR Single Cycle Kinetics, GDP-bound KRAS wild-type protein, 1:1 binding model; read-out: KRAS KD
Sequence of GDP-bound KRAS wild-type protein (P01116 whole entry): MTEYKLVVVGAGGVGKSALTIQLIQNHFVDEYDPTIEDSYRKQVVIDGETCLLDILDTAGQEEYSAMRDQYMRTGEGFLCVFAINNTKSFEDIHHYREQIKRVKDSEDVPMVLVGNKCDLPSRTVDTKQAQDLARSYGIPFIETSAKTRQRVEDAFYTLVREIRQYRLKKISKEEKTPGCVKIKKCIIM

[3] = biological target: GDP-bound NRAS wild-type protein (Homo sapiens, UniProt P01111); test: Binding to NRAS by surface plasmon resonance (SPR), Single Cycle Kinetics; conditions: SPR KD ratio NRAS/KRAS, class symbols
Sequence of GDP-bound NRAS wild-type protein (P01111 whole entry): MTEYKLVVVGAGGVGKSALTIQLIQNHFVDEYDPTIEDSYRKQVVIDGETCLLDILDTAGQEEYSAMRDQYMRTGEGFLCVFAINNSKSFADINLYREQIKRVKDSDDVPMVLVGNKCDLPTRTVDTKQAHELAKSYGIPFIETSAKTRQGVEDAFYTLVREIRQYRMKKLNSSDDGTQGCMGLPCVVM

Sequence of GDP-bound HRAS wild-type protein (P01112 whole entry): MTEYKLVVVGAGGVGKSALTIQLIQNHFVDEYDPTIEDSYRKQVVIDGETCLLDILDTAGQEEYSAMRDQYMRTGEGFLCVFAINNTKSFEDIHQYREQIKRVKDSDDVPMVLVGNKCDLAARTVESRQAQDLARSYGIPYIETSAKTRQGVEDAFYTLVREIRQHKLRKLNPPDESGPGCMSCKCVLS

Row | SMILES | HRAS/KRAS (ratio of KD value with respect to GDP-bound HRAS wild-type protein to KD value with respect to KRAS) [1] | Kd [2] | NRAS/KRAS (ratio of KD value with respect to GDP-bound NRAS wild-type protein to KD value with respect to KRAS) [3]
1 | CCO[C@@H]1C[C@H]2C(=O)NC3(CC(C)(C)C3)C(=O)N(C)[C@@H](C3CCCC3)C(=O)N(C)[C@H](C(=O)N3CCCCC3)CC(=O)N(C)[C@H]3CCC/C=C/c4ccc(cc4)C[C@@H](C(=O)N(C)CC(=O)N[C@@H](CCc4cc(F)c(C(F)(F)F)c(F)c4)C(=O)N2C1)N1CC/C=C\C[C@@H](C1=O)N(C)C(=O)CN(C)C(=O)[C@H]([C@@H](C)CC)NC3=O [PP2573] | A (a compound having 10 or more and less than 20 is denoted as A) | 0.1 nM | A (a compound having 10 or more and less than 20 is denoted as A)
2 | CCO[C@@H]1C[C@H]2C(=O)NC3(CC(C)(C)C3)C(=O)N(C)[C@@H](C3CCCC3)C(=O)N(C)[C@H](C(=O)N3CCCC3)CC(=O)N(C)[C@H]3CCC/C=C/c4ccc(cc4)C[C@@H](C(=O)N(C)CC(=O)N[C@@H](CCc4cc(F)c(C(F)(F)F)c(F)c4)C(=O)N2C1)N1CC/C=C\C[C@@H](C1=O)N(C)C(=O)CN(C)C(=O)[C@H]([C@@H](C)CC)NC3=O [PP2574, (1S,7S,11R,13S,19S,22S,26S,29S,35S,37Z,47E)-19-cyclopentyl-7-[2-[3,5-difluoro-4-(trifluoromethyl)phenyl]ethyl]-11-ethoxy-3,3′,3′,18,21,25,31,34-octamethyl-29-[(1S)-1-methylpropyl]-22-(pyrrolidine-1-carbonyl)spiro[3,6,9,15,18,21,25,28,31,34,41-undecazapentacyclo[24.15.10.2^43,46.1^35,41.0^9,13]tetrapentaconta-37,43(53),44,46(52),47-pentaene-16,1′-cyclobutane]-2,5,8,14,17,20,24,27,30,33,54-undecone] | A (a compound having 10 or more and less than 20 is denoted as A) | 0.051 nM | A (a compound having 10 or more and less than 20 is denoted as A)
3 | CCO[C@@H]1C[C@H]2C(=O)NC3(CC(C)(C)C3)C(=O)N(C)[C@@H](C(CC)CC)C(=O)N(C)[C@H](C(=O)N(C)C)CC(=O)N(C)[C@H]3CCC/C=C/c4ccc(cc4)C[C@@H](C(=O)N(C)CC(=O)N[C@@H](CCc4cc(F)c(C(F)(F)F)c(F)c4)C(=O)N2C1)N1CC/C=C\C[C@@H](C1=O)N(C)C(=O)CN(C)C(=O)[C@H]([C@@H](C)CC)NC3=O [PP2575] | A (a compound having 10 or more and less than 20 is denoted as A) | 0.086 nM | A (a compound having 10 or more and less than 20 is denoted as A)
4 | CCO[C@@H]1C[C@H]2C(=O)NC3(CC(C)(C)C3)C(=O)N(C)[C@@H](C(CC)CC)C(=O)N(C)[C@H](C(=O)N3CCCC3)CC(=O)N(C)[C@H]3CCC/C=C/c4ccc(cc4)C[C@@H](C(=O)N(C)CC(=O)N[C@@H](CCc4cc(F)c(C(F)(F)F)c(F)c4)C(=O)N2C1)N1CC/C=C\C[C@@H](C1=O)N(C)C(=O)CN(C)C(=O)[C@H]([C@@H](C)CC)NC3=O [PP2576] | A (a compound having 10 or more and less than 20 is denoted as A) | 0.14 nM | A (a compound having 10 or more and less than 20 is denoted as A)
5 | CCO[C@@H]1C[C@H]2C(=O)NC3(CC(C)(C)C3)C(=O)N(C)[C@@H](C3CCCC3)C(=O)N(C)[C@H](C(=O)N(C)CC)CC(=O)N(C)[C@H]3CCC/C=C/c4ccc(cc4)C[C@@H](C(=O)N(C)CC(=O)N[C@@H](CCc4ccc(Cl)c(Cl)c4)C(=O)N2C1)N1CC/C=C\C[C@@H](C1=O)N(C)C(=O)CN(C)C(=O)[C@H]([C@@H](C)CC)NC3=O [PP2577] | A (a compound having 10 or more and less than 20 is denoted as A) | 0.12 nM | A (a compound having 10 or more and less than 20 is denoted as A)
6 | CCO[C@@H]1C[C@H]2C(=O)NC3(CC(C)(C)C3)C(=O)N(C)[C@@H](C3CCCC3)C(=O)N(C)[C@H](C(=O)N3CCCCC3)CC(=O)N(C)[C@H]3CCC/C=C/c4ccc(cc4)C[C@@H](C(=O)N(C)CC(=O)N[C@@H](CCc4ccc(Cl)c(Cl)c4)C(=O)N2C1)N1CC/C=C\C[C@@H](C1=O)N(C)C(=O)CN(C)C(=O)[C@H]([C@@H](C)CC)NC3=O [PP2578] | A (a compound having 10 or more and less than 20 is denoted as A) | 0.27 nM | AA (a compound having 20 or more is denoted as AA)
7 | CCO[C@@H]1C[C@H]2C(=O)NC3(CC(C)(C)C3)C(=O)N(C)[C@@H](C(CC)CC)C(=O)N(C)[C@H](C(=O)N(C)C)CC(=O)N(C)[C@H]3CCC/C=C/c4ccc(cc4)C[C@@H](C(=O)N(C)CC(=O)N[C@@H](CCc4ccc(Cl)c(Cl)c4)C(=O)N2C1)N1CC/C=C\C[C@@H](C1=O)N(C)C(=O)CN(C)C(=O)[C@H]([C@@H](C)CC)NC3=O [PP2580] | A (a compound having 10 or more and less than 20 is denoted as A) | 0.2 nM | AA (a compound having 20 or more is denoted as AA)
8 | CCO[C@@H]1C[C@H]2C(=O)NC3(CC(C)(C)C3)C(=O)N(C)[C@@H](C(CC)CC)C(=O)N(C)[C@H](C(=O)N3CCCC3)CC(=O)N(C)[C@H]3CCC/C=C/c4ccc(cc4)C[C@@H](C(=O)N(C)CC(=O)N[C@@H](CCc4ccc(Cl)c(Cl)c4)C(=O)N2C1)N1CC/C=C\C[C@@H](C1=O)N(C)C(=O)CN(C)C(=O)[C@H]([C@@H](C)CC)NC3=O [PP2581] | A (a compound having 10 or more and less than 20 is denoted as A) | 0.21 nM | AA (a compound having 20 or more is denoted as AA)
9 | CCO[C@@H]1C[C@H]2C(=O)NC3(CC(C)(C)C3)C(=O)N(C)[C@@H](C3CCCC3)C(=O)N(C)[C@H](C(=O)N3CCCC3)CC(=O)N(C)[C@H]3CCC/C=C/c4ccc(cc4)C[C@@H](C(=O)N(C)CC(=O)N[C@@H](CCc4cc(F)c(C(F)(F)F)c(F)c4)C(=O)N2C1)N1CC/C=C\C[C@@H](C1=O)N(C)C(=O)CN(C1CC1)C(=O)[C@H]([C@@H](C)CC)NC3=O [PP2583] | A (a compound having 10 or more and less than 20 is denoted as A) | 0.11 nM | A (a compound having 10 or more and less than 20 is denoted as A)
10 | CCO[C@@H]1C[C@H]2C(=O)NC3(CC(C)(C)C3)C(=O)N(C)[C@@H](C3CCCC3)C(=O)N(C)[C@H](C(=O)N(C)CC)CC(=O)N(C)[C@H]3CCCC/C=C/c4ccc(cc4)C[C@@H](C(=O)N(C)CC(=O)N[C@@H](CCc4ccc(Cl)c(Cl)c4)C(=O)N2C1)N1CC/C=C\C[C@@H](C1=O)N(C)C(=O)CN(C)C(=O)[C@H]([C@@H](C)CC)NC3=O [PP2592] | A (a compound having 10 or more and less than 20 is denoted as A) | 0.13 nM | A (a compound having 10 or more and less than 20 is denoted as A)
